Source: patent publication US20100150985A1, “Dental Implant, Endodontic Instrument, and Dental Filling Material Coated with a Peptide-Based Antimicrobial and Methods of Using and Making the Same” (priority 2008, published 2010)

Tests used:
[1] = system: Staphylococcus aureus; experiment: in-vitro assay of immobilized peptide on 316L stainless steel pins; format: cell-based; conditions: peptide covalently bonded to parylene coated stainless steel pins, after ethylene oxide sterilization; data not shown
Description: Medical standard alloy 316L stainless steel pins were coated with an antimicrobial peptide layer to determine the efficacy of an immobilized antimicrobial peptide. The pins were coated with a tie layer. A parylene coating containing a reactive molecule specific for the N-terminus region of the peptide (“Photopolymer”) was then applied over the tie layer. The peptide WLBU-2 (SEQ ID NO. 179) was applied to the parylene coating and exposed to UV light to facilitate covalent bonding of the peptide with the parylene coating. Parylene coated stainless steel pins and non-coated stainless steel pins were used as controls. All samples and controls were subjected to ethylene oxide sterilization. The coated samples were placed in 75% relative humidity overnight.

[2] = retention of antimicrobial/biological activity after sterilization; conditions: peptide coated on a substrate, ethylene oxide sterilization
Description: In a useful embodiment of the present invention, the antimicrobial peptides may retain antibacterial activity after a dental device coated with the antimicrobial, peptide is sterilized.

RRWVRRVRRVWRRVVRVVRRWVVRR (RRWVRRVRRVWRRVVRVVRRWVRR; Artificial peptide derived from HIV-1) [WLBU-2, Lytic Base Unit peptide]
efficacy of immobilized antimicrobial peptide [1]: efficacy against Staphylococcus aureus
antimicrobial activity after sterilization [2]: retained antimicrobial activity
